Data on six molecules can be found in patent US20220313733A1, “METHOD FOR PRODUCING RENAL INTERSTITIAL CELL” (Kyoto University, priority 2019, published 2022).

Format in all cases: cell-based, human
Test [1] concerns hNCCs. As to the kind of experiment: Hypoxic response of posteriorly shifted NCCs (hNCCs): EPO secreted into the medium. The settings on record: hNCCs on Day 18, 100 μM, 1 day after addition. As for the experimental part: EPO-producing cells are known to perform the production and secretion of EPO in response to HIF signals in a hypoxic environment. The hypoxic response of the hNCCs on Day 18 prepared in Example 1-3 was confirmed using two types of compounds that activated HIF signals (FG-2216: Selleck Chemicals #18382 and FG-4592: Selleck Chemicals #S1007, 100 μM each). Results of quantifying the amount of EPO secreted into the medium on 1 day after addition of FG-2216 or FG-4592 are shown in FIG. 3. The secretion of EPO into the medium was increased in response to hypoxic stimulation.

Test [2] has as its system RSCs. As to the kind of experiment: Hypoxia-responsive ability of RSCs to produce EPO (mRNA, immunostaining). To be noted: 100 μM. As for the experimental part:
The RSPs obtained in Example 2 were inoculated at 2×10^3 cells/well to a 6-well plate coated with fibronectin, and cultured for 15 days in STEMdiff APEL2 medium (STEMCELL Technologies Inc., ST-05275) to obtain RSCs (Days 55 to 70). The hypoxia-responsive ability to produce EPO was confirmed as to the obtained RSCs. EPO-producing cells are known to perform the production and secretion of EPO in response to HIF signals in a hypoxic environment. The RSCs were treated with a compound that activated HIF signals (FG-4592, Selleck Chemicals, #S1007, 100 μM).

Test [3] relates to kidney organoid (Mini-kidney). As to the kind of experiment: Renal stromal cell marker mRNA expression in Mini-kidney under hypoxic stimulation. The settings on record: Mini-kidney IM+RSP (D25), 100 μM. The source says:
The mRNA expression levels of renal stromal cell markers (desmin, vimentin, PDGFRβ and CD73) were quantified by the sequencing analysis of the libraries for transcriptomes prepared in Example 4-4. The expression of all the renal stromal cell markers was confirmed in the Mini-kidney (IM+RSP (D25)). As a result of confirming the hypoxic response of the Mini-kidney (IM+RSP (D25)) in the same manner as in Example 1-4, the expression levels of desmin and CD73 were decreased by hypoxic stimulation (100 μM FG-4592) (IM+RSP (D25)+FG4592).

In test [4] the test system is kidney organoid (Mini-kidney). Put plainly: EPO mRNA expression in kidney organoid (Mini-kidney) under hypoxic stimulation. The settings on record: Mini-kidney IM+RSP (D25), 100 μM. As for the experimental part:
RNA was extracted from the kidney organoid on Day 25 from the start of coculture (Mini-kidney, IM+RSP (D25)) obtained in Example 4-3 and a kidney organoid containing no RSP (KiO (D25)), and libraries for transcriptome analysis were prepared using Ion AmpliSeq™ Transcriptome Human Gene Expression Kit (Thermo Fisher Scientific, Inc.: #A26326). The prepared libraries were subjected to sequencing analysis (Ion S5 XL sequencer, Thermo Fisher Scientific, Inc.) using Ion 54™ Chip Kit (Thermo Fisher Scientific, Inc., #A27765) to quantify the expression level of EPO mRNA. The significant expression of EPO mRNA was not seen in any of an iPS cell line, IM, and the kidney organoid containing no RSP (KiO (D25)). By contrast, the significant expression of EPO mRNA was confirmed in the Mini-kidney (IM+RSP (D25)). As a result of confirming the hypoxic response of the Mini-kidney in the same manner as in Example 1-4, the EPO expression level was increased by hypoxic stimulation (100 μM FG-4592) (IM+RSP (D25) +FG4592).

Test [5] concerns RSCs. As to the kind of experiment: Screening system for a compound that improves a sustained fibrotic state (area of tdTomato-positive cells). The settings on record: 3, 10 or 30 μM added on D15, cultured to D24, after 10 ng/ml TGFβ1 D4 to D13. As for the experimental part:
In FIG. 15, RSCs on day 4 of culture (D4) were treated with TGFβ1 (10 ng/ml) for 9 days (D13) and then further cultured in a TGFβ1-free medium (D15) for 2 days. SB431542 (3, 10 or 30 μM) was added to the medium of the cells on D15, and the cells were further cultured for 9 days (D24). […] “Cont” depicts a negative control (without SB addition).
RSPs were inoculated at 3000 cells/well to a 384-well plate, and the induction of RSCs was started in STEMdiff APEL2 medium (STEMCELL Technologies Inc., ST-05275). On day 4 of culture (D4), fibrosis was induced by the addition of 10 ng/ml TGFβ1. During the culture period, the culture solution containing TGFβ1 was replaced with a fresh one every 3 days. On day 13 of culture (D13), TGFβ1 was removed from the medium, and culture was further continued for 2 days (D15). The TGF receptor inhibitor SB431542 (SB) was added as a test substance to the medium of the cells on D15, and the cells were further cultured for 9 days (D24). Then, the area of tdTomato-positive cells was determined.

For test [6], the system named is RSCs. As to the kind of experiment: Evaluation of TGFβ1 response of RSCs (fibrosis, area of tdTomato-positive cells, αSMA). As for the experimental part: In vivo renal stromal cells are known to cause differentiation into αSMA-positive myofibroblasts and hypertrophy (so-called fibrosis) in response to TGFβ1 stimulation. RSCs were obtained by the methods described in Examples 1, 2 and 3-1 from the EPO-emGFP/GAPDH-tdTomato (GAPDH-tdT) dual knock-in human iPS cell line obtained in Example 4-2 mentioned later. In the method described in Example 1, the RA concentration was set to 3 μM. RSCs on day 4 of culture (D4) were treated with TGFβ1 (0.01 to 10 ng/ml) for 9 days (D13), and the degree of fibrosis was evaluated by determining the ratio of tdTomato-positive cells using image analysis software Image J (NIH). Specifically, a fluorescently taken image was converted to 8 bits for binarization, and the whole area was divided into “area of cells” and “other areas (areas containing no cell)”. The proportion was calculated according to the expression “Area of cells”/“Whole area”.

Test [7] relates to RSCs. Put plainly: Fibrotic state of RSCs after removal of TGFβ1 from the medium. As for the experimental part: In FIG. 13, RSCs on day 4 of culture (D4) were treated with TGFβ1 (1 ng/ml) for 9 days (D13 TGF) and then further cultured in a TGFβ1-containing medium (D25 TGF+) or a TGFβ1-free medium (D25 TGF−) for 12 days. […] “D25 Cont” depicts a negative control (without TGFβ1 treatment).
In FIG. 14, RSCs on day 4 of culture (D4) were treated with TGFβ1 (10 ng/ml) for 9 days (D13 TGF) and then further cultured in a TGFβ1-containing medium (D25 TGF+) or a TGFβ1-free medium (D25 TGF−) for 12 days. […] “D25 Cont” depicts a negative control (without TGFβ1 treatment).
By exploiting this property of fibrosis of RSCs, a screening system for a compound that improved a sustained fibrotic state was constructed.

Test [8] concerns fibronectin (FN1). As to the kind of experiment: Biomarker search: LC/MS analysis of culture supernatant of RSCs with induced fibrosis. The settings on record: 10 ng/ml TGFβ1 for 9 days. As for the experimental part:
RSPs were inoculated at 2×10^6 cells/dish to a 10 cm dish, and the induction of RSCs was started in STEMdiff APEL2 medium (STEMCELL Technologies Inc., ST-05275). On day 7 of culture (D7), 10 ng/ml TGFβ1 was added thereto, and the cells were further cultured for 9 days to induce fibrosis.
The culture supernatant was recovered. After removal of albumin, IgG and IgA, a peptide fragment was obtained by acetone precipitation and trypsin digestion. The amino acid sequence of the peptide fragment was determined by LC/MS analysis.

Test [9] deals with RSPs. Put plainly: Influence of bFGF, FGF9 and PDGF-BB on differentiation of RSPs into RSCs (number of cells, EPO ELISA). As for the experimental part: The RSPs obtained in Example 2 were inoculated at 2×10^3 cells/well to a 6-well plate coated with fibronectin, and cultured for 15 days in STEMdiff APEL2 medium (STEMCELL Technologies Inc., ST-05275) to obtain RSCs (Days 55 to 70).
The number of cells and the amount of EPO secreted into the medium which were obtained by adding 40 ng/ml bFGF, 200 ng/ml FGF9 (FUJIFILM Wako Pure Chemical Corp., #AF-100-23), and 10 ng/ml PDGF-BB (PeproTech, Inc., #100-14B) each alone or in combination to a medium were measured under the induction conditions of Example 3-1. EPO in the medium was measured by ELISA.
For orientation: In an ELISA, binding on a coated surface is turned into a signal by an enzyme label.

With `O=C(O)CNC(=O)c1nc(Cl)c2ccccc2c1O` [FG-2216], the “secretion of EPO into the medium” value in test [1] is “increased”.
Take `Cc1nc(C(=O)NCC(=O)O)c(O)c2ccc(Oc3ccccc3)cc12` [FG-4592]: in test [2], the “expression of EPO in response to hypoxic stimulation” value was “found at the mRNA level and the protein level”. Moreover, in test [3], the “expression level of CD73” value is “decreased” and the “expression level of desmin” value is on record as “decreased”. In test [4], the EPO expression level result is “increased”. Also, the “secretion of EPO into the medium” value in [1] is “increased”.
For `NC(=O)c1ccc(-c2nc(-c3ccc4c(c3)OCO4)c(-c3ccccn3)[nH]2)cc1` [SB431542, 4-[4-(1,3-benzodioxol-5-yl)-5-(2-pyridinyl)-1H-imidazol-2-yl]-benzamide], the “fibrosis (area of tdTomato-positive cells)” value in [5] is “marked suppression of fibrosis”. Further, the “cellular hypertrophy caused by TGFβ1” value in test [6] (cotreatment with TGF receptor inhibitor) is recorded as “suppressed”.
Consider “TGFβ1: isoform of transforming growth factor β, fibrosis-inducing substance”, for which the “fibrotic state after removing TGFβ1 from the medium” value in test [7] (fibrosis induced by 1 ng/ml TGFβ1) is “restored to non-fibrotic RSCs”. Further, in test [7] (fibrosis induced by 10 ng/ml TGFβ1), the “fibrotic state after removal of TGFβ1 from the medium” value is “maintained the fibrotic state”. In addition, the “cellular hypertrophy, concentration dependence” value in test [6] (TGFβ1 0.01 to 10 ng/ml for 9 days) is listed as “caused in a TGFβ1 concentration-dependent manner”. The “differentiation into αSMA-positive myofibroblasts and cellular hypertrophy” value in [6] (TGFβ1 0.01 to 10 ng/ml for 9 days (D4 to D13)) was “found”. The “FN1 detected in culture supernatant of treated cells as compared with untreated cells” value in test [8] is given as “about 10 times”.
As for “bFGF: basic fibroblast growth factor (FUJIFILM Wako Pure Chemical Corp.)”, the “proliferation of the cells” value in [9] (40 ng/ml bFGF added to STEMdiff APEL2 medium) is reported as “promoted”.

B1: PDGF-BB: platelet derived growth factor B chain homodimer (PeproTech, Inc., #100-14B) (protein, UniProt P01127 82-190, looked up)
Platelet-derived growth …: SLGSLTIAEPAMIAECKTRTEVFEISRRLIDRTNANFLVWPPCVEVQRCSGCCNNRNVQCRPTQVQLRPVQVRKIEIVRKKPIFKKATVTLEDHLACKCETVAAARPVT
For B1, the “amount of EPO secreted” value in test [9] (10 ng/ml PDGF-BB added to STEMdiff APEL2 medium) was “increased”.
